pEC50: −log10 of the molar value.
Assay: Inhibition of DLK in CD-1 mouse DRG neuron assessed as axonal protection pre-incubated for 2 hrs before NGF deprivation for 16 to 20 hrs by Campenot chamber based fluorescence assay

SMILES | pEC50
CC(C)n1nc(-c2cnc(N)c(OC(F)(F)F)c2)cc1[C@H]1[C@@H]2CN(C3COC3)C[C@@H]21 | 6.24
Nc1ncc(-c2cc([C@H]3[C@@H]4CN(C5COC5)C[C@@H]43)n(CC3CC3)n2)cc1C(F)(F)F | 6.34
